# Patent publication US10844052B2, “LLS compounds for treatment of cancer” (THE REGENTS OF THE UNIVERSITY OF CALIFORNIA, priority 2016, dated 2020)
# System: PC3 prostate cancer cells
# Experiment: Cell viability of prostate cancer PC3 cells after 72 hours treatment
# Format: cell-based
# Details: Homo sapiens; for viability at 2.5 µM: PC-3, 2.5 μM; for viability at 5 µM: PC-3, 5 μM; for viability at 10 µM: PC-3, 10 μM; for viability at 20 µM: PC-3, 20 μM
# Description: Effects of compounds LLS42-LLS80 on the viability of PC3 prostate cancer cells after 72 hours of treatment are shown in Table 2 below: […]
Structure (SMILES),viability at 2.5 µM,viability at 5 µM,viability at 10 µM,viability at 20 µM
"COc1ccc(CCn2c(-c3ccc(N(CCO)CCO)cc3)nc3cc(C(CC(N)=O)NCc4ccc5[nH]ncc5c4)ccc32)cc1 (stereo not drawn) [LLS53, 3-(((1H-indazol-5-yl)methyl)amino)-3-(2-(4-(bis(2-hydroxyethyl)amino)phenyl)-1-(4-methoxyphenethyl)-1H-benzo[d]imidazol-5-yl)propanamide]",93%,91%,98%,105%
"CC(=O)OCCN(CCOC(C)=O)c1ccc(-c2nc3cc(C(CC(N)=O)NCc4cccn4S(=O)(=O)c4ccccc4)ccc3n2CCCN2CCCCC2)cc1 (stereo not drawn) [LLS52Ac, ((4-(5-(3-amino-3-oxo-1-(((1-(phenylsulfonyl)-1H-pyrrol-2-yl)methyl)amino)propyl)-1-(3-(piperidin-1-yl)propyl)-1H-benzo[d]imidazol-2-yl)phenyl)azanediyl)bis(ethane-2,1-diyl) Diacetate]",91%,96%,94%,91%
"NC(=O)CC(NCC1CCCCC1)c1ccc2c(c1)nc(-c1ccc(N(CCO)CCO)cc1)n2Cc1ccc(C(F)(F)F)cc1 (stereo not drawn) [LLS71, 3-(2-(4-(bis(2-hydroxyethyl)amino)phenyl)-1-(4-(trifluoromethyl)benzyl)-1H-benzo[d]imidazol-5-yl)-3-((cyclohexylmethyl)amino)propanamide]",91%,83%,59%,3%
"NCCn1c(-c2ccc(N(CCO)CCO)cc2)nc2cc(C(CC(N)=O)NCc3ccc(Br)s3)ccc21 (stereo not drawn) [LLS45, 3-(1-(2-aminoethyl)-2-(4-(bis(2-hydroxyethyl)amino)phenyl)-1H-benzo[d]imidazol-5-yl)-3-(((5-bromothiophen-2-yl)methyl)amino)propanamide]",92%,102%,118%,117%
"COc1cccc(Cn2c(-c3ccc(N(CCO)CCO)cc3)nc3cc(C(CC(N)=O)NCc4ccc5[nH]ncc5c4)ccc32)c1 (stereo not drawn) [LLS59, 3-(((1H-indazol-5-yl)methyl)amino)-3-(2-(4-(bis(2-hydroxyethyl)amino)phenyl)-1-(3-methoxybenzyl)-1H-benzo[d]imidazol-5-yl)propanamide]",83%,97%,90%,91%
"COc1ccc(CCn2c(-c3ccc(N(CCOC(C)=O)CCOC(C)=O)cc3)nc3cc(C(CC(N)=O)NCC4CCCCC4)ccc32)cc1 (stereo not drawn) [LLS56Ac, ((4-(5-(3-amino-1-((cyclohexylmethyl)amino)-3-oxopropyl)-1-(4-methoxyphenethyl)-1H-benzo[d]imidazol-2-yl)phenyl)azanediyl)bis(ethane-2,1-diyl) Diacetate]",85%,93%,92%,55%
"NC(=O)CC(NCc1cccn1S(=O)(=O)c1ccccc1)c1ccc2c(c1)nc(-c1ccc(N(CCO)CCO)cc1)n2CCCN1CCCCC1 (stereo not drawn) [LLS52, 3-(2-(4-(bis(2-hydroxyethyl)amino)phenyl)-1-(3-(piperidin-1-yl)propyl)-1H-benzo[d]imidazol-5-yl)-3-(((1-(phenylsulfonyl)-1H-pyrrol-2-yl)methyl)amino)propanamide]",97%,96%,87%,84%
"NC(=O)CC(NCc1ccc2[nH]ncc2c1)c1ccc2c(c1)nc(-c1ccc(N(CCO)CCO)cc1)n2Cc1ccc(OC(F)(F)F)cc1 (stereo not drawn) [LLS55, 3-(((1H-indazol-5-yl)methyl)amino)-3-(2-(4-(bis(2-hydroxyethyl)amino)phenyl)-1-(4-(trifluoromethoxy)benzyl)-1H-benzo[d]imidazol-5-yl)propanamide]",91%,100%,102%,92%
"COc1ccc(CCn2c(-c3ccc(N(CCOC(C)=O)CCOC(C)=O)cc3)nc3cc(C(CC(N)=O)NCc4ccc5[nH]ccc5c4)ccc32)cc1 (stereo not drawn) [LLS69Ac, ((4-(5-(1-(((1H-indol-5-yl)methyl)amino)-3-amino-3-oxopropyl)-1-(4-methoxyphenethyl)-1H-benzo[d]imidazol-2-yl)phenyl)azanediyl)bis(ethane-2,1-diyl) Diacetate]",101%,95%,73%,2%
"NC(=O)CC(NCC1CCCCC1)c1ccc2c(c1)nc(-c1ccc(N(CCO)CCO)cc1)n2Cc1ccc(OC(F)(F)F)cc1 (stereo not drawn) [LLS42, 3-(2-(4-(bis(2-hydroxyethyl)amino)phenyl)-1-(4-(trifluoromethoxy)benzyl)-1H-benzo[d]imidazol-5-yl)-3-((cyclohexylmethyl)amino)propanamide]",95%,92%,49%,0%
"NCCCn1c(-c2ccc(N(CCO)CCO)cc2)nc2cc(C(CC(N)=O)NCc3ccc(C4CC=NN4)s3)ccc21 (stereo not drawn) [LLS54, 3-(1-(3-aminopropyl)-2-(4-(bis(2-hydroxyethyl)amino)phenyl)-1H-benzo[d]imidazol-5-yl)-3-(((5-(4,5-dihydro-1H-pyrazol-5-yl)thiophen-2-yl)methyl)amino)propanamide]",90%,86%,105%,87%
"CC(=O)OCCN(CCOC(C)=O)c1ccc(-c2nc3cc(C(CC(N)=O)NCc4ccc(-c5ccncc5)cc4)ccc3n2CCCn2ccnc2)cc1 (stereo not drawn) [LLS58Ac, ((4-(1-(3-(1H-imidazol-1-yl)propyl)-5-(3-amino-3-oxo-1-((4-(pyridin-4-yl)benzyl)amino)propyl)-1H-benzo[d]imidazol-2-yl)phenyl)azanediyl)bis(ethane-2,1-diyl) Diacetate]",100%,98%,91%,83%
"CC(=O)OCCN(CCO)c1ccc(-c2nc3cc(C(CC(N)=O)NCc4ccc(-c5ccn[nH]5)s4)ccc3n2CCCN(C)C)cc1 (stereo not drawn) [LLS66, 2-((4-(5-(1-(((5-(1H-pyrazol-5-yl)thiophen-2-yl)methyl)amino)-3-amino-3-oxopropyl)-1-(3-(dimethylamino)propyl)-1H-benzo[d]imidazol-2-yl)phenyl)(2-hydroxyethyl)amino)ethyl Acetate]",98%,91%,89%,79%
"NC(=O)CC(NCc1ccc(-c2cncnc2)cc1)c1ccc2c(c1)nc(-c1ccc(N(CCO)CCO)cc1)n2Cc1ccc(OC(F)(F)F)cc1 (stereo not drawn) [LLS51, 3-(2-(4-(bis(2-hydroxyethyl)amino)phenyl)-1-(4-(trifluoromethoxy)benzyl)-1H-benzo[d]imidazol-5-yl)-3-((4-(pyrimidin-5-yl)benzyl)amino)propanamide]",83%,79%,99%,105%
"CC(=O)OCCN(CCOC(C)=O)c1ccc(-c2nc3cc(C(CC(N)=O)NCc4ccc(-c5ccn[nH]5)s4)ccc3n2CCCN(C)C)cc1 (stereo not drawn) [LLS78, ((4-(5-(1-(((5-(1H-pyrazol-5-yl)thiophen-2-yl)methyl)amino)-3-amino-3-oxopropyl)-1-(3-(dimethylamino)propyl)-1H-benzo[d]imidazol-2-yl)phenyl)azanediyl)bis(ethane-2,1-diyl) Diacetate]",97%,93%,101%,100%
